# Results reported in ChEMBL document CHEMBL3817764, “Pyrimidine-based antimalarials: design strategies and antiplasmodial effects” (Medchemcomm, 2016).
# Legend:
# [1] = test system: Plasmodium falciparum; experiment: Antiplasmodial activity against chloroquine-sensitive Plasmodium falciparum D6 by NBT assay; type: functional, organism-based
# [2] = test system: Plasmodium falciparum; experiment: Antiplasmodial activity against chloroquine-resistant Plasmodium falciparum W2 by NBT assay; type: functional, organism-based
# [3] = test system: Plasmodium berghei; experiment: Antiplasmodial against Plasmodium berghei in rat malaria model assessed as parasite suppression at 30 mg/kg measured after 4 days; type: functional
# [4] = molecular target: Dihydroorotate dehydrogenase (quinone), mitochondrial (Homo sapiens, UniProt Q02127); experiment: Inhibition of human DHODH
# [5] = Oral bioavailability in Sprague-Dawley rat plasma by LC/MS analysis; type: ADME, organism-based
# [6] = test system: Plasmodium falciparum; experiment: Antimalarial activity against Plasmodium falciparum V1/S harboring DHFR N51I+C59R+S108N+I164L quadruple mutant assessed as reduction parasite growth by [3H]-hypoxanthine incorporation assay; type: functional, organism-based
# [7] = test system: Calf thymus DNA; experiment: Binding affinity to calf thymus DNA assessed as induction of hypochromic shift in intensity of quinoline absorption band at 331 nm at 7.1 uM; type: nucleic-acid assay; conditions: Bos taurus
# [8] = test system: Calf thymus DNA; experiment: Binding affinity to calf thymus DNA assessed as induction of red shift at 7.1 uM; type: nucleic-acid assay; conditions: Bos taurus
# [9] = test system: Calf thymus DNA; experiment: Binding affinity to calf thymus DNA assessed as melting temperature (reference value: 59.5 degC); type: nucleic-acid assay; conditions: Bos taurus
# [10] = test system: Plasmodium falciparum; experiment: Antimalarial activity against chloroquine-sensitive Plasmodium falciparum D6 assessed as plasmodial LDH activity; type: functional, organism-based
# [11] = test system: Plasmodium falciparum; experiment: Antimalarial activity against chloroquine-resistant Plasmodium falciparum W2 assessed as plasmodial LDH activity; type: functional, organism-based
# Dihydroorotate dehydrogenase (quinone), mitochondrial, sequence (Q02127 whole entry): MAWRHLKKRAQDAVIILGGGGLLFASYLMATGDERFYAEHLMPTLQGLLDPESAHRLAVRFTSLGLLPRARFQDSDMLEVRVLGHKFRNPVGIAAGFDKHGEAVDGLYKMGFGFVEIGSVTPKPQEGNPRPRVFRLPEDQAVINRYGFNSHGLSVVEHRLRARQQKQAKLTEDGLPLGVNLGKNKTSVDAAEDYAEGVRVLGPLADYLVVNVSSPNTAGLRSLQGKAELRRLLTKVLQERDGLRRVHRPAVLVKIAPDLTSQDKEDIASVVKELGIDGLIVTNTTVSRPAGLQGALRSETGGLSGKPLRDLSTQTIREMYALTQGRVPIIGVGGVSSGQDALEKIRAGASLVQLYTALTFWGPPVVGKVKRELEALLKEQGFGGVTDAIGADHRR
SMILES,IC50 [1] [nM],IC50 [2] [nM],further results
Cc1cc(N2CCCCC2)nc(NCCCCNc2ccnc3cc(Cl)ccc23)n1,6,16,
Cc1cc(N2CCN(C)CC2)nc(NCCCCCCNc2ccnc3cc(Cl)ccc23)n1,6,16,
Cc1cc(N2CCCCC2)nc(NCCCNc2ccnc3cc(Cl)ccc23)n1,6,16,
CN1CCN(c2ccnc(NCCCNc3ccnc4cc(Cl)ccc34)n2)CC1,6,16,
CCN1CCN(c2cc(C)nc(NCCCCNc3ccnc4cc(Cl)ccc34)n2)CC1,6,16,
CN1CCN(c2ccnc(NCCNc3ccnc4cc(Cl)ccc34)n2)CC1,6,16,
Cc1cc(N2CCN(C)CC2)nc(NCCNc2ccnc3cc(Cl)ccc23)n1,6,16,
Clc1ccc2c(NCCNc3ccnc(N4CCOCC4)n3)ccnc2c1,,,Activity [3]: 93.9%
Clc1ccc2c(NCCCNc3nccc(N4CCOCC4)n3)ccnc2c1,6,16,
Cc1cc(N2CCOCC2)nc(NCCCCNc2ccnc3cc(Cl)ccc23)n1,6,16,
Cc1cc(N2CCN(C)CC2)nc(NCCCCNc2ccnc3cc(Cl)ccc23)n1,6,16,
Cc1cc(N2CCN(C)CC2)nc(NCCCNc2ccnc3cc(Cl)ccc23)n1,6,16,
CCN1CCN(c2ccnc(NCCCNc3ccnc4cc(Cl)ccc34)n2)CC1,6,16,
Cc1cc(N2CCOCC2)nc(NCCCNc2ccnc3cc(Cl)ccc23)n1,6,16,
Cc1cc(Nc2ccc3ccccc3c2)n2ncnc2n1,,,IC50 [4]: > 200000 nM
Cc1cc(N2CCOCC2)nc(NCCCCCCNc2ccnc3cc(Cl)ccc23)n1,6,16,
CC1(C)N=C(N)N=C(N)N1OCCCOc1cc(Cl)c(Cl)cc1Cl.Cl,,,bioavailability [5]: 1%
Cc1nc(N)nc(N)c1OCCCOc1cc(Cl)c(Cl)cc1Cl,,,bioavailability [5]: 83%
Clc1ccc2c(NCCNc3nccc(N4CCCCC4)n3)ccnc2c1,6,16,

SMILES,IC50 [1] [nM],IC50 [2] [nM],further results
Clc1ccc2c(NCCNc3nccc(Cl)n3)ccnc2c1,6,16,
Clc1ccc2c(NCCCNc3nc(Cl)cc(Cl)n3)ccnc2c1,6,16,
CCN1CCN(c2cc(C)nc(NCCCNc3ccnc4cc(Cl)ccc34)n2)CC1,6,16,
CCc1nc(N)nc(N)c1OCCCOc1ccccc1CCC(=O)O,,,EC50 [6]: 56 nM
Clc1ccc2c(NCCCNc3nccc(N4CCCCC4)n3)ccnc2c1,,,Activity [7]: 23%; Activity [8]: 14 nm; Tm [9]: 67.8 °C
Cc1cc(N2CCOCC2)nc(NCCNc2ccnc3cc(Cl)ccc23)n1,6,16,
Cc1cc(N2CCCCC2)nc(NCCNc2ccnc3cc(Cl)ccc23)n1,6,16,
CCN1CCN(c2ccnc(NCCNc3ccnc4cc(Cl)ccc34)n2)CC1,6,16,
Clc1ccc2c(NCCNc3nc(Cl)cc(Cl)n3)ccnc2c1,6,16,
Cc1cc(NCCNc2ccnc3cc(Cl)ccc23)nc(NCCCCCO)n1,,,IC50 [10]: 50 nM; IC50 [11]: 50 nM
Clc1ccc2c(NCCCNc3ccnc(Cl)n3)ccnc2c1,,,IC50 [10]: 50 nM; IC50 [11]: 50 nM
Cc1cc(NCCCCNc2ccnc3cc(Cl)ccc23)nc(NCCCCCCO)n1,,,IC50 [10]: 50 nM; IC50 [11]: 50 nM
Clc1ccc2c(NCCCNc3cc(Cl)nc(Cl)n3)ccnc2c1,,,IC50 [10]: 50 nM; IC50 [11]: 50 nM
Cc1cc(N2CCCCC2)nc(NCCCCCCNc2ccnc3cc(Cl)ccc23)n1,6,16,
Clc1ccc2c(NCCNc3nccc(N4CCOCC4)n3)ccnc2c1,6,16,
Cc1cc(NCCNc2ccnc3cc(Cl)ccc23)nc(NCCCCCCO)n1,,,IC50 [10]: 50 nM; IC50 [11]: 50 nM
Cc1cc(N2CCN(c3ccnc4cc(Cl)ccc34)CC2)nc(Nc2ccc(Cl)cc2)n1,,,IC50 [10]: 130 nM; IC50 [11]: 130 nM
Cc1cc(NCCCCNc2ccnc3cc(Cl)ccc23)nc(NCCCO)n1,,,IC50 [10]: 50 nM; IC50 [11]: 50 nM
OCCNc1nccc(NCCCCNc2ccnc3cc(Cl)ccc23)n1,,,IC50 [10]: 50 nM; IC50 [11]: 50 nM
